From PMC9482650, “Quantitative fragmentomics allow affinity mapping of interactomes” (Nature Communications, 2022)
Read-outs that look alike come from different tables or passages of the source. Ends that are not written are not given here.

Legend:
Experiment in all cases: Holdup assay
Format in all cases: binding
[1] = target: SCRIB_1 PDZ (Homo sapiens, UniProt Q14160)
[2] = target: SNX27 PDZ (Homo sapiens, UniProt Q96L92)
[3] = target: DLG1_2 PDZ (Homo sapiens, UniProt Q12959)
[4] = target: T1, TX1BP3 PDZ (Homo sapiens, UniProt O14907)
T1 sequence (O14907 15-112 limits assumed): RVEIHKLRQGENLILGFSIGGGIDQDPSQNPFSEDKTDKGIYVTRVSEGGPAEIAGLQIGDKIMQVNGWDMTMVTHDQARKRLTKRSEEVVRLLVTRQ

[5] = target: DLG1_1 PDZ (Homo sapiens, UniProt Q12959)
[6] = target: T2, SCRIB2 PDZ (Homo sapiens, UniProt Q14160); conditions: holdup affinity of the PBM peptide of the named protein; sheet PBMcomplexome, lower sub-table; 3.5 appears to be the floor for no detectable binding; read-out: affinity of PBM to SCRIB_2 (pKd) (converted)
T2 sequence (Q14160 862-950 limits assumed): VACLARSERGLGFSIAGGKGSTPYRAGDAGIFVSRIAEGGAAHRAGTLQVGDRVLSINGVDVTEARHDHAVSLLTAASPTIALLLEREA

[7] = PBM motif of the named protein vs SCRIB_1 PDZ, read-out: pKd values – domain-motif, SCRIB_1 (converted)
[8] = PBM motif of the named protein vs DLG1_2 PDZ, read-out: pKd values – domain-motif, DLG1_2 (converted)
[9] = PBM motif of the named protein vs TX1BP3 PDZ, read-out: pKd values – domain-motif, TX1BP3 (converted)
[10] = holdup affinity of the PBM peptide of the named protein, sheet PBMcomplexome, lower sub-table, 3.5 appears to be the floor for no detectable binding, read-out: affinity of PBM to SCRIB_1 (pKd) (converted)
[11] = holdup affinity of the PBM peptide of the named protein, sheet PBMcomplexome, lower sub-table
[12] = holdup affinity of the PBM peptide of the named protein, sheet PBMcomplexome, lower sub-table, 3.5 appears to be the floor for no detectable binding, read-out: affinity of PBM to TX1BP3 (pKd) (converted)
[13] = PBM motif of the named protein vs DLG1_1 PDZ, read-out: pKd values – domain-motif, DLG1_1 (converted)

Sequence of SCRIB_1 PDZ (Q14160 728-815 limits assumed): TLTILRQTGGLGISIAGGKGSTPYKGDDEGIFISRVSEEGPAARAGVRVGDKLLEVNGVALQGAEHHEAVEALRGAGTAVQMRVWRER

| Kd [1, 7] | Kd [2] | Kd [3, 8] | Kd [1, 10] | Kd [2, 11] | Kd [4, 12] | Sequence | further results |
| --- | --- | --- | --- | --- | --- | --- | --- |
| 33.1 µM | 26.9 µM | 214 µM | – | – | – | ELSATVTTDC [TRIP6] | Kd [4, 9]: 331 µM |
| – | – | – | 263 µM | 3.31 µM | 107 µM | NLQEHSTTSV [RSBN1] | Kd ([3]; holdup affinity of the PBM peptide of the named protein, sheet PBMcomplexome, lower sub-table, 3.5 appears to be the floor for no detectable binding, read-out: affinity of PBM to DLG1_2 (pKd) (converted)): 102 µM; Kd ([5]; holdup affinity of the PBM peptide of the named protein, sheet PBMcomplexome, lower sub-table, 3.5 appears to be the floor for no detectable binding, read-out: affinity of PBM to DLG1_1 (pKd) (converted)): 316 µM |
| – | – | – | 275 µM | 74.1 µM | – | EALLQMESVA [CAVIN3] | – |
| 8.32 µM | 7.08 µM | – | – | – | – | DLDEEEDTHL [PODXL] | Kd [5, 13]: 234 µM |
| 95.5 µM | 91.2 µM | 145 µM | – | – | – | DPRNTQTSQI [ABRAXAS2] | Kd [4, 9]: 195 µM; Kd [5, 13]: 324 µM |
| – | – | – | 41.7 µM | 75.9 µM | 115 µM | YLEPVLSSEL [ATP2A2] | Kd [6]: 275 µM |
| – | – | – | – | – | 91.2 µM | DRIQSCLSDA [SBF1] | – |
| 6.61 µM | 5.37 µM | 275 µM | – | – | – | GGPKEEESPV [SLC16A1] | – |
